Biological target: T1, GR (Homo sapiens, UniProt P04150)
T1 construct: expressed in transfected cells; host or cells: CHO-K1
T1 sequence (P04150 1-777): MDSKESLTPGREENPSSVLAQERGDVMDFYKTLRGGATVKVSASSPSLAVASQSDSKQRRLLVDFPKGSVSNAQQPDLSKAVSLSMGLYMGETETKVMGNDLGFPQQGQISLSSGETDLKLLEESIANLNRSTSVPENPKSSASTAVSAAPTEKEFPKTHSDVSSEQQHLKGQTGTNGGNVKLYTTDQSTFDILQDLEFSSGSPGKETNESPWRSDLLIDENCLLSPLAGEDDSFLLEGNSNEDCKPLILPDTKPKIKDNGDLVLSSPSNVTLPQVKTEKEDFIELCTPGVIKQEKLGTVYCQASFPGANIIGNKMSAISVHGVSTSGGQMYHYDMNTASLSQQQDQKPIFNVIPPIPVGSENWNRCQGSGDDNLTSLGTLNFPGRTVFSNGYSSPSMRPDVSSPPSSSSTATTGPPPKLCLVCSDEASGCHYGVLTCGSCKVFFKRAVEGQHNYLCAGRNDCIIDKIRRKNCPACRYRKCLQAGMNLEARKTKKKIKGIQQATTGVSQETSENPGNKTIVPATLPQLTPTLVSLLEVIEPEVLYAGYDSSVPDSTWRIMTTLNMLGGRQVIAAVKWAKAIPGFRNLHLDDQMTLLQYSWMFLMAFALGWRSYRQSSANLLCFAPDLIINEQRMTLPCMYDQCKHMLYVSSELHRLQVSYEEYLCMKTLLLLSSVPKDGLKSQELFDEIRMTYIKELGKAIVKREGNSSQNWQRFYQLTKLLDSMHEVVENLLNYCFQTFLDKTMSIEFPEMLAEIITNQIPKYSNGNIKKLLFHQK
Assay: In Vitro GR Luciferase Reporter Assay (antagonist mode, CHO-K1-GR-MMTV-Luc reporter cells)
Type: cell-based
Details: antagonist mode, 10 nM Dexamethasone
In short: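 CHO-K1-GR-MMTV-Luc cells in phenol red-free DMEM with 10% CSS, stimulated with 10 nM dexamethasone (final) and treated with 8-point 1:5 compound dilutions for about 18-24 h at 37° C. Luciferase measured by OneGlo luminescence; IC50 derived for inhibition of GR activity.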

Row | IC50 [nM] | SMILES
1 | ≤ 100 | Cn1ccc(S(=O)(=O)N(C2CCCC2)[C@H]2CCC3=Cc4c(cnn4-c4ccc(F)cc4)C[C@]3(C(=O)c3cc(C(F)(F)F)ccn3)C2)n1 [Example 238, N-cyclopentyl-N-((4aS,6S)-1-(4-fluorophenyl)-4a-(4-(trifluoromethyl)picolinoyl)-4,4a,5,6,7,8-hexahydro-1H-benzo[f]indazol-6-yl)-1-methyl-1H-pyrazole-3-sulfonamide]
2 | ≤ 100 | Cn1ncc(S(=O)(=O)N(C2COC2)[C@H]2CCC3=Cc4c(cnn4-c4ccc(F)cc4)C[C@]3(C(=O)c3cc(C(F)(F)F)ccn3)C2)n1 [Example 239, N-((4aS,6S)-1-(4-fluorophenyl)-4a-(4-(trifluoromethyl)picolinoyl)-4,4a,5,6,7,8-hexahydro-1H-benzo[f]indazol-6-yl)-2-methyl-N-(oxetan-3-yl)-2H-1,2,3-triazole-4-sulfonamide]
3 | ≤ 100 | O=C(c1ccc(Cl)cn1)[C@]12Cc3cnn(-c4ccc(F)cc4)c3C=C1CC[C@H](N(C1CC1)S(=O)(=O)c1ccc(F)cc1)C2 [Example 240, N-((4aS,6S)-4a-(5-chloropicolinoyl)-1-(4-fluorophenyl)-4,4a,5,6,7,8-hexahydro-1H-benzo[f]indazol-6-yl)-N-cyclopropyl-4-fluorobenzenesulfonamide]
4 | ≤ 100 | CC(C)CN([C@H]1CCC2=Cc3c(cnn3-c3ccc(F)cc3)C[C@]2(C(=O)c2cc(Cl)ccn2)C1)S(=O)(=O)c1ccn(C)n1 [Example 249, N-((4aS,6S)-4a-(4-chloropicolinoyl)-1-(4-fluorophenyl)-4,4a,5,6,7,8-hexahydro-1H-benzo[f]indazol-6-yl)-N-isobutyl-1-methyl-1H-pyrazole-3-sulfonamide]
5 | ≤ 100 | CC(C)CN([C@H]1CCC2=Cc3c(cnn3-c3ccc(F)cc3)C[C@]2(C(=O)c2cc(F)ccn2)C1)S(=O)(=O)c1ccn(C)n1 [Example 252, N-((4aS,6S)-1-(4-fluorophenyl)-4a-(4-fluoropicolinoyl)-4,4a,5,6,7,8-hexahydro-1H-benzo[f]indazol-6-yl)-N-isobutyl-1-methyl-1H-pyrazole-3-sulfonamide]
6 | ≤ 100 | O=C(c1cc(C(F)(F)F)ccn1)[C@]12Cc3cnn(-c4ccc(F)cc4)c3C=C1CC[C@H](N(C1CCC1)S(=O)(=O)c1ccn(C(F)F)n1)C2 [Example 253, N-cyclobutyl-1-(difluoromethyl)-N-((4aS,6S)-1-(4-fluorophenyl)-4a-(4-(trifluoromethyl)picolinoyl)-4,4a,5,6,7,8-hexahydro-1H-benzo[f]indazol-6-yl)-1H-pyrazole-3-sulfonamide]
7 | ≤ 100 | Cn1ncc(S(=O)(=O)N(C2CCC2)[C@H]2CCC3=Cc4c(cnn4-c4ccc(F)cc4)C[C@]3(C(=O)c3cc(C(F)(F)F)ccn3)C2)n1 [Example 256, N-cyclobutyl-N-((4aS,6S)-1-(4-fluorophenyl)-4a-(4-(trifluoromethyl)picolinoyl)-4,4a,5,6,7,8-hexahydro-1H-benzo[f]indazol-6-yl)-2-methyl-2H-1,2,3-triazole-4-sulfonamide]
8 | ≤ 100 | Cn1ccc(S(=O)(=O)[C@H]2CCC3=Cc4c(cnn4-c4ccc(F)cc4)C[C@]3(C(=O)c3ncc(C(F)(F)F)s3)C2)n1 [Example 264, ((4aS,6S)-1-(4-fluorophenyl)-6-((1-methyl-1H-pyrazol-3-yl)sulfonyl)-1,4,5,6,7,8-hexahydro-4aH-benzo[f]indazol-4a-yl)(5-(trifluoromethyl)thiazol-2-yl)methanone]
9 | ≤ 100 | O=C(c1ncc(C(F)(F)F)s1)[C@]12Cc3cnn(-c4ccc(F)cc4)c3C=C1CC[C@H](N(C1CC1)S(=O)(=O)c1ccc(Cl)nc1)C2 [Example 271, 6-chloro-N-cyclopropyl-N-((4aS,6S)-1-(4-fluorophenyl)-4a-(5-(trifluoromethyl)thiazole-2-carbonyl)-4,4a,5,6,7,8-hexahydro-1H-benzo[f]indazol-6-yl)pyridine-3-sulfonamide]
10 | ≤ 100 | O=C(c1cc(F)ccn1)[C@]12Cc3cnn(-c4ccc(F)cc4)c3C=C1CC[C@H](N(CC1CC1)S(=O)(=O)c1ccc(F)cc1)C2 [Example 274, N-(cyclopropylmethyl)-4-fluoro-N-((4aS,6S)-1-(4-fluorophenyl)-4a-(4-fluoropicolinoyl)-4,4a,5,6,7,8-hexahydro-1H-benzo[f]indazol-6-yl)benzenesulfonamide]
11 | ≤ 100 | O=C(c1cc(Cl)ccn1)[C@]12Cc3cnn(-c4ccc(F)cc4)c3C=C1CC[C@H](N(CC1CC1)S(=O)(=O)c1ccc(F)cc1)C2 [Example 275, N-((4aS,6S)-4a-(4-chloropicolinoyl)-1-(4-fluorophenyl)-4,4a,5,6,7,8-hexahydro-1H-benzo[f]indazol-6-yl)-N-(cyclopropylmethyl)-4-fluorobenzenesulfonamide]
12 | ≤ 100 | O=C(c1cc(Cl)ccn1)[C@]12Cc3cnn(-c4ccc(F)cc4)c3C=C1CC[C@H](N(CC1(O)CC1)S(=O)(=O)c1ccc(F)cc1)C2 [Example 276, N-((4aS,6S)-4a-(4-chloropicolinoyl)-1-(4-fluorophenyl)-4,4a,5,6,7,8-hexahydro-1H-benzo[f]indazol-6-yl)-4-fluoro-N-((1-hydroxycyclopropyl)methyl) benzenesulfonamide]
13 | ≤ 100 | CC(C)N([C@H]1CCC2=Cc3c(cnn3-c3ccc(F)cc3)C[C@]2(C(=O)c2cc(F)ccn2)C1)S(=O)(=O)c1cnn(C)n1 [Example 278, N-((4aS,6S)-1-(4-fluorophenyl)-4a-(4-fluoropicolinoyl)-4,4a,5,6,7,8-hexahydro-1H-benzo[f]indazol-6-yl)-N-isopropyl-2-methyl-2H-1,2,3-triazole-4-sulfonamide]
14 | ≤ 100 | CC(C)N(C(=O)C1CCCC1)[C@H]1CCC2=Cc3c(cnn3-c3ccc(F)cc3)C[C@]2(C(=O)c2ncc(C(F)(F)F)s2)C1 [Example 281, N-((4aS,6S)-1-(4-fluorophenyl)-4a-(5-(trifluoromethyl)thiazole-2-carbonyl)-4,4a,5,6,7,8-hexahydro-1H-benzo[f]indazol-6-yl)-N-isopropylcyclopentanecarbox-amide]
15 | ≤ 100 | Cn1ccc(S(=O)(=O)N([C@H]2CCC3=Cc4c(cnn4-c4ccc(F)cc4)C[C@]3(C(=O)c3cc(F)ccn3)C2)[C@H]2C[C@@](C)(O)C2)n1 [Example 284, N-((4aS,6S)-1-(4-fluorophenyl)-4a-(4-fluoropicolinoyl)-4,4a,5,6,7,8-hexahydro-1H-benzo[f]indazol-6-yl)-N-((1s,3R)-3-hydroxy-3-methylcyclobutyl)-1-methyl-1H-pyrazole-3-sulfonamide]
16 | ≤ 100 | O=C(c1cc(C(F)(F)F)ccn1)[C@]12Cc3cnn(-c4ccc(F)cc4)c3C=C1CC[C@H](N(C1CC1)S(=O)(=O)c1ccc(C(F)(F)F)nc1)C2 [Example 285, N-cyclopropyl-N-((4aS,6S)-1-(4-fluorophenyl)-4a-(4-(trifluoromethyl)picolinoyl)-4,4a,5,6,7,8-hexahydro-1H-benzo[f]indazol-6-yl)-6-(trifluoromethyl)pyridine-3-sulfonamide]
17 | 100 to 1000 | O=C(c1ccc(F)cc1)N(C1CC1)[C@H]1CCC2=Cc3c(cnn3-c3ccc(F)cc3)C[C@]2(C(=O)c2ncc(C(F)(F)F)s2)C1 [Example 291, N-cyclopropyl-4-fluoro-N-((4aS,6S)-1-(4-fluorophenyl)-4a-(5-(trifluoromethyl)thiazole-2-carbonyl)-4,4a,5,6,7,8-hexahydro-1H-benzo[f]indazol-6-yl)benzamide]
18 | ≤ 100 | Cn1ncc(S(=O)(=O)N(CC2(O)CC2)[C@H]2CCC3=Cc4c(cnn4-c4ccc(F)cc4)C[C@]3(C(=O)c3ncc(C(F)(F)F)s3)C2)n1 [Example 292, N-((4aS,6S)-1-(4-fluorophenyl)-4a-(5-(trifluoromethyl)thiazole-2-carbonyl)-4,4a,5,6,7,8-hexahydro-1H-benzo[f]indazol-6-yl)-N-((1-hydroxycyclopropyl)methyl)-2-methyl-2H-1,2,3-triazole-4-sulfonamide]
19 | ≤ 100 | Cn1cc(S(=O)(=O)N(CC2CC2)[C@H]2CCC3=Cc4c(cnn4-c4ccc(F)cc4)C[C@]3(C(=O)c3cc(F)ccn3)C2)nn1 [Example 297, N-(cyclopropylmethyl)-N-((4aS,6S)-1-(4-fluorophenyl)-4a-(4-fluoropicolinoyl)-4,4a,5,6,7,8-hexahydro-1H-benzo[f]indazol-6-yl)-1-methyl-1H-1,2,3-triazole-4-sulfonamide]
20 | ≤ 100 | Cn1cc(S(=O)(=O)N(CC(C)(C)O)[C@H]2CCC3=Cc4c(cnn4-c4ccc(F)cc4)C[C@]3(C(=O)c3ncc(C(F)(F)F)s3)C2)nn1 [Example 301, N-((4aS,6S)-1-(4-fluorophenyl)-4a-(5-(trifluoromethyl)thiazole-2-carbonyl)-4,4a,5,6,7,8-hexahydro-1H-benzo[f]indazol-6-yl)-N-(2-hydroxy-2-methylpropyl)-1-methyl-1H-1,2,3-triazole-4-sulfonamide]
